Here are results for 3 compounds from patent US20250313860A1, “EXPRESSION OF EXOGENOUS PROTEINS IN DONOR PLATELETS TREATED WITH LIPID NANOPARTICLES” (THE UNIVERSITY OF BRITISH COLUMBIA, priority 2022, published 2025).

Assay [1] has as its system platelets transfected with mRNA-LNP. Nature of the assay: Intracellular and extracellular NanoLuc after agonist activation of transfected platelets. The settings on record: after agonist stimulation of transfected platelets; for intracellular NanoLuc level (cell pellet): FIG. 4D; for extracellular NanoLuc level (supernatant): FIG. 4E. Format: cell-based, human. How it is done:
(§1) Platelets untreated or treated with CL4H6 POPC LNP were activated after 2 h with 0.1 U mL-1 thrombin from human plasma (MilliporeSigma Canada Ltd, Oakville, ON) or 10 μM Chrono-Par® ADP reagent (Chrono-Log, Havertown, PA) in Tyrode's-HEPES buffer pH 7.4 (134 mM NaCl, 2.9 mM KCl, 0.34 mM NaH2PO4, 10 mM HEPES, 5 mM D-glucose). After 4 h LNP treatment, platelets were collected for flow cytometry and the remaining sample was centrifuged at 250×g for 10 min, with the pellet and supernatant fractions collected for luciferase assay.
Platelets were transfected with mRNA-LNP encoding NanoLuc, followed by activation with agonists ADP or thrombin. Intracellular and extracellular protein was separated by centrifugation, and enzymatic activity assays were used to measure exogenous protein levels in both fractions as described in the Materials and Methods.

Another assay has as its system human platelets. Briefly: Platelet responsiveness to agonists ADP and thrombin (CD62P flow cytometry). Format: cell-based. To be noted: transfected and control untreated platelets, FIG. 3A. On the procedure: as §1
Platelet responsiveness to agonists ADP or thrombin was measured by flow cytometry staining using PE-conjugated mouse anti-human CD62P labeling, as described in the Materials and Methods.

The subject of assay [2] is platelets transfected with mRNA-LNP. Briefly: Cycloheximide treatment of mRNA-LNP transfected platelets. Format: cell-based, human. The text has this: Platelets were transfected with mRNA encoding nanoluciferase (NanoLuc) encapsulated in LNP formulation using ALC0315 and DOPC immediately preceding treatment with cycloheximide, followed by enzymatic assays of nanoluciferase activity, and activation by flow cytometry using PE-conjugated mouse anti-human CD62P labeling, as described in the Materials and Methods.

Take `Nc1ncnc2c1ncn2[C@@H]1O[C@H](COP(=O)(O)OP(=O)(O)O)[C@@H](O)[C@H]1O` [ADP]: in assay [1], the “intracellular NanoLuc level (cell pellet)” value is on record as “unchanged” and the “extracellular NanoLuc level (supernatant)” value is listed as “unchanged”. Moreover, in the assay with human platelets, the “increase of CD62P levels by agonist” value is “mildly”.
`C[C@@H]1C[C@@H]([C@H](O)CC2CC(=O)NC(=O)C2)C(=O)[C@@H](C)C1` [cycloheximide]: in assay [2] (LNP with ALC0315 and DOPC, FIG. 5A), the “exogenous protein synthesis in transfected platelets” value is on record as “inhibited”. Also, the “mRNA-LNP uptake in transfected platelets” value in assay [2] (presence or absence of cycloheximide, FIG. 5B) is “no statistically significant effect”.
In the case of thrombin, in assay [1], the “intracellular NanoLuc level (cell pellet)” value was “decreased” and the “extracellular NanoLuc level (supernatant)” value is reported as “decreased”. Also, in the assay on human platelets, the “increase of CD62P levels by agonist” value is on record as “substantially”.
